Assays:
Heg2 cells = experiment: MTT cytotoxicity on Heg2 cells; assay type: cell-based; details: FIG. 3; for inhibition of cancer cells versus positive controls: cell viability experiments; for toxicity to Heg2 cells: 48 hours, pH 6.5, MTT
Method: Collect logarithmic Heg2 cells, adjust the cell suspension concentration, add 140 ul per well, and plate to adjust the density of the cells to be tested ˜5000/well; 5% CO2, incubate at 37° C. overnight, until the cell monolayer is covered with the bottom of the well (96) Condensate bottom plate), adding continuous concentration gradient to give different concentrations of compound S1, compound a and sorafenib, the drug set 9 concentration gradients, 10 ul per well, set 3 duplicate wells; 5% CO2, 37° C. PH6 0.5 incubation for 48 hours, observed under an inverted microscope; 20 μl of MTT solution (5 mg/ml, i.e. 0.5% MTT) was added to each well and incubation was continued for 4 h. The culture was terminated, and the culture solution in the well was carefully aspirated; 100 ul of dimethyl sulfoxide was added to each well, and shaken on a shaker at a low speed for 10 min to dissolve the crystals sufficiently. The absorbance of each well was measured at an enzyme-linked immunosorbent detector at OD490 nm. At the same time, zero adjustment holes (medium, MTT, dimethyl sulfoxide), control group (cell, same concentration of drug dissolution medium, medium, MTT, dimethyl sulfoxide) were set.

[1] = Stability of sorafenib derivatives in buffer systems; assay type: physicochemical; details: weak acid, weak base and neutral buffer
Source text: In order to solve this dilemma, the present invention performs allosteric synthesis and screening of the ortho-carboxamide group of the pyridine ring in the sorafenib molecule, and obtains a special compound which satisfies both the structure-activity relationship and the release effect. That is, compound a and compound b).

aspartic endopeptidase = target: T1, aspartic endopeptidase (Homo sapiens, UniProt Q99538); experiment: Activation efficiency by aspartic endopeptidase (HPLC); assay type: biochemical; details: 1 mg/ml compound, enzyme 1 μmol/L, pH 6.0, 37° C., 2 hours; ratio of released product to original compound
T1 sequence (Q99538 18-323): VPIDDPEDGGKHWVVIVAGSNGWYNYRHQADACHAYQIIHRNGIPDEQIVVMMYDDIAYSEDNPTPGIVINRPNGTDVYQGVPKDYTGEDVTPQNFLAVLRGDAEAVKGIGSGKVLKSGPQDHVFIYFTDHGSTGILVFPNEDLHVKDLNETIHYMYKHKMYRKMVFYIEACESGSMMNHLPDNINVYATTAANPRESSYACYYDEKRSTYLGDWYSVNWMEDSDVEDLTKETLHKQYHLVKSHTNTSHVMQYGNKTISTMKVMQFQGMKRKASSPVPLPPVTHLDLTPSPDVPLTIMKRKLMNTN
Method: The sample compound and a portion of the control compound (herein, all of the control compounds can be synthesized by a method similar to that described in Examples 1-3) were uniformly diluted 10-fold to 1 mg/ml with the enzyme-digesting solution. In this experiment, 1 mg/ml of the sample compound was added to the aspartic endopeptidase (1 μmol/L, pH 6.0) at 37° C. for 2 hours. After the reaction, the enzyme digest was able to release the enzyme-digested product. The decrease in the compound and the increase in the product were examined by HPLC to compare the enzyme activation efficiency (the ratio of the product released by the enzyme cleavage to the original compound).

CT26 tumor cells [2] = experiment: CT26 immunotherapy model (Example 15); assay type: in vivo, mice; details: for Cure rate % / Number of cures: 10 in each group; for Tumor inhibition rate % (Day 42): IV ⅓ MTD once a week, 6 weeks; for Recurrence rate % (Week 7): cured mice re-inoculated with CT26 cells after 50 days
Method: (§1) 1) CT26 tumor cells were purchased from ATCC, and the cells were cultured using a 10% fetal bovine serum DMEM medium at 37° C., 5% CO2. The cells were passaged every 3 days and the cells were used within 15 generations.
(§2) 2) Tumor production: 10^6 live CT26 tumor cells were injected subcutaneously into the back of tumor-immunized […], and treatment was started when the tumor grew to about 0.3-0.4 cm. The tumor size (mm^3) of the mice was recorded and compared with the solvent control group. The tumor inhibition rate on day 42 was calculated in the solvent control group.
(§3) 3) Treatment process: IV injection is used, and the drug is used at a dose of ⅓ MTD once a week Immunosuppressive IV injection treatment once a week for a total of 6 weeks of treatment.
(§4) 4) The cure rate of 10 in each group was counted. After 50 days, the cured mice and wild groups were inoculated […] to detect recurrence.

[3] = Drug content in tumor tissue homogenate (HPLC); assay type: in vivo; details: 10 micromoles per kilogram intravenous, tumor-bearing mice, FIG. 4
Method: Intravenous injection of 10 micromoles per kilogram of the drug into tumor-bearing mice, surgically obtained tumor tissue homogenate, and the drug content was determined by the HPLC method.

D121 lung cancer cells = experiment: D121 lung cancer immunotherapy model; details: for Tumor inhibition rate/% (week 7) / CD8: CD45 (%): single agent; for Tumor inhibition rate/% (week 7): i.v. ⅙ MTD once a week for 4 weeks; for CD8: CD45 (%): tumor CD8+ T cells among CD45-positive cells
Method: (1) D121 lung cancer cells purchased from ATCC were cultured in DMEM medium containing 10% fetal bovine serum at 37° C. and 5% CO2, and the cells were digested with EDTA trypsin according to routine use, and passed two to three times a week for placement.
(2) Animals: C57 BALB/C mice, 6-8 weeks old, female, weighing about 18-22 g, purchased from Shanghai SLAC Laboratory Animal Co., Ltd.
3) Immunization: Mice were intraperitoneally injected with 100 μL of 5×10^5 D121 lung cancer cells that died by repeated freeze-thaw cycles, and immunized 3 times with an interval of 2 weeks.
4) Cell seeding: Collect the tumor cells in logarithmic growth phase, adjust the D121 cell concentration to (1×10^7/ml) with DMEM basal medium, 0.1 ml of the cell suspension was inoculated to the right side of each mouse subcutaneously with a 1 ml syringe. […] Tumor volume was observed and measured, and the average tumor volume reached 100-200 mm^3 about 7 days after inoculation, that is, tumor cell-bearing mice were grouped and administered. The immunized group in Table 9 was immunized with D121 lung cancer cells, and the D121 dead tumor cell immunized group was injected with physiological saline as a control.
The immunosuppressive regulatory point protein Anti-PD-L1 antibody was injected twice a week. A total of two weeks.
6) Experimental observation: During the whole experiment, the use and observation of experimental animals were carried out in accordance with the regulations of AAALAC. The experimental animals were observed daily after inoculation of tumor cells, and their onset and death were recorded. During the routine experiment, all experimental animals were monitored and recorded for behavior, feeding, water intake, weight change, hair shine and other abnormalities.
(7) Analysis of tumor CD8+ T cells (T lymphocyte subsets). Tumor tissues were ground and single cancer cells were isolated by filtration using 40 μm Nylon cell strainer, lysed twice with blood cell lysis buffer for 20 min, washed twice with 1% BSA-PBS buffer, centrifuged, and resuspended, and then the cells were counted again. 1×10^5 cells were incubated with leukocyte co-antigen CD45-PE and CD8-FITC-labeled antibody for 1 hour at room temperature in the dark, and then analyzed the proportion of T lymphocyte antigen (CD8) in leukocyte common antigen (CD45)-positive cells by flow cytometry.

[4] = Solid stability, 60° C. for 10 days in the dark (HPLC); assay type: physicochemical; details: solid, 60° C., 10 days, dark; for Stability(%): content versus time 0
Method: The test was carried out by leaving it at 60° C. for 10 days in the dark. The ratio of the change in the content of the compound to the compound at time 0 was measured by HPLC, and the stability value (%) was calculated.

[5] = MTD (maximum tolerated dose) acute toxicity in mice; assay type: in vivo, mouse; details: female, mouse, in vivo; BALB/C mice, intravenous, observed 17 days
Source text: (§5) Test purpose: to investigate the acute toxicity of highly activated compounds by targeted site molecules of the invention by measuring the MTD (maximum tolerated dose) experiment in mice.
(§6) The injections of each drug and the control drug were uniformly dissolved using water for injection, and diluted to the corresponding dose with physiological saline during the test.
(§7) Methods and results: […] BALB/C mice, weighing 19-21 g, were randomly divided into 10 groups, with 10 mice in each group. […] A control test of the saline group and the adriamycin group injection (commercially available, Beijing Yue kang) was carried out, and the injection volume of each mouse was 0.2 ml. […] On the D3, D5, and D14, blood samples were taken for whole blood count.

BALB/C mouse = experiment: as above; assay type: in vivo; details: intravenous; for Number of deaths: 10 mice per group; for Death dose: observed 17 days
Source text: as §5, §6, §7

[6] = tested on: Tumor-associated macrophages (M2 type); experiment: MTT toxicity on tumor-associated macrophages (M2 type); assay type: cell-based; details: 48 hours, pH 6.5, MTT, FIG. 7
Method: Tumor-associated macrophages (M2 type) induced by mononuclear bone marrow cells were collected by M-CSF (10 ng/ml), the cell suspension concentration was adjusted, 140 ul per well was added, and the cells were adjusted to a density of ˜3000 […]. 5% CO2, incubate at 37° C. overnight, until the cell monolayer is covered with the bottom of the well (96-well flat bottom plate), and then add a continuous concentration gradient to give different concentrations of the drug, the drug is set to 9 concentration gradients, 10 μl per well, set Three replicate wells; 5% CO2, incubated at 37° C., pH 6.5 for 48 hours, observed under an inverted microscope; 20 μl of MTT solution (5 mg/ml, i.e., 0.5% MTT) was added to each well and culture was continued for 4 h. The culture was terminated, and the culture solution in the well was carefully aspirated; 100 ul of dimethyl sulfoxide was added to each well, and shaken on a shaker at a low speed for 10 min to dissolve the crystals sufficiently. The absorbance of each well was measured at an enzyme-linked immunosorbent detector at OD490 nm. At the same time, zero adjustment holes (medium, MTT, dimethyl sulfoxide), control group (cell, same concentration of drug dissolution medium, medium, MTT, dimethyl sulfoxide) were set. The toxicity of the compound to tumor-associated macrophages (M2 type) was analyzed after the test. The inhibition of tumor-associated macrophages (M2 type) by different drugs was compared. […] Compound a, sorafenib, is also toxic because it is not a targeted activating drug.

[7] = Tumor tissue distribution by autofluorescence after intravenous injection; assay type: in vivo; details: 10 μmol/kg intravenously, after 12 hours, FIG. 2
Method: Since DOX, Succinyl-AANL-DOX and S3 have autofluorescence, they can be detected by fluorescence microscopy in tumor tissues. 10 μmol/kg of DOX, Succinyl-AANL-DOX and S3 were injected intravenously. After 12 hours, the drug distribution image of the tumor tissue sections and the fluorescence intensity of the tumor tissue homogenate were measured. Nuclear staining was performed using DAPI.

CT26 tumor cells [8] = experiment: CT26 treatment model (Example 17); assay type: in vivo, mice; details: CT26 model as in Example 15
Method: as §1, §2, §3, §4
The CT26 immunotherapy model was constructed as in Example 15, and the pharmacodynamic and immunotherapeutic effects of the compounds S4-S6, S9-S12 and S15-S18 in the CT26 treatment model were tested.

CNCCNC(=O)c1cc(Oc2ccc(NC(=O)Nc3ccc(Cl)c(C(F)(F)F)c3)c(F)c2)ccn1 [compound b]
inhibition of cancer cells versus positive controls (Heg2 cells): inhibited cancer cells better than the positive control drugs sorafenib and regorafenib | stability in buffer systems [1]: stable in weak acid, weak base and neutral buffer system, did not degrade

CC(NC(=O)C(C)NC(=O)[C@H](O)[C@H](O)[C@@H](O[C@@H]1O[C@H](CO)[C@H](O)[C@H](O)[C@H]1O)[C@H](O)CO)C(=O)NC(CC(N)=O)C(=O)Nc1ccc(COC(=O)N(C)CCNC(=O)c2cc(Oc3ccc(NC(=O)Nc4ccc(Cl)c(C(F)(F)F)c4)cc3)ccn2)cc1 (stereo partly drawn) [Compound S1, Lacto-AAN-PABC-compound a]
Activation efficiencies (%) (aspartic endopeptidase): 86.7% | Cure rate % (CT26 tumor cells [2]): 40% | Number of cures (CT26 tumor cells [2]): 4 | Tumor inhibition rate % (Day 42) (CT26 tumor cells [2]): 94.7% | Recurrence rate % (Week 7) (CT26 tumor cells [2]): 0% | toxicity to Heg2 cells (Heg2 cells): non-toxic to normal cells | drug distribution in the tumor [3]: multiplied in the distribution of sorafenib in the tumor | Tumor inhibition rate/% (week 7) (D121 lung cancer cells): 53.4% | CD8: CD45 (%) (D121 lung cancer cells; flow cytometry): 11.0% | Stability verdict (stable / unstable) [4]: stable | Stability(%) [4]: 96.7% | MTD at 17 days [5]: 300 mg/kg | Number of deaths (BALB/C mouse): 1 | Death dose (BALB/C mouse): 350 mg/kg | toxicity to / activation by tumor-associated macrophages (M2 type) [6]: more susceptible to phagocytosis and activation by macrophages than other methods of linker

CNCCNC(=O)c1cc(Oc2ccc(NC(=O)Nc3ccc(Cl)c(C(F)(F)F)c3)cc2)ccn1 [compound a]
toxicity to Heg2 cells (Heg2 cells): more toxic than sorafenib | inhibition of cancer cells versus positive controls (Heg2 cells): inhibited cancer cells better than the positive control drugs sorafenib and regorafenib | stability in buffer systems [1]: stable in weak acid, weak base and neutral buffer system, did not degrade | toxicity to / activation by tumor-associated macrophages (M2 type) [6]: also toxic

COc1cccc2c1C(=O)c1c(O)c3c(c(O)c1C2=O)C[C@](O)(C(=O)CO)CC3OC1C[C@H](NC(=O)OCc2ccc(NC(=O)C(CC(N)=O)NC(=O)C(C)NC(=O)C(C)NC(=O)[C@H](O)[C@H](O)[C@@H](O[C@@H]3O[C@H](CO)[C@H](O)[C@H](O)[C@H]3O)[C@H](O)CO)cc2)[C@H](O)[C@H](C)O1 (stereo partly drawn) [Compound S3, Lacto-AAN-PABC-Adriamycin]
Activation efficiencies (%) (aspartic endopeptidase): 82.6% | Cure rate % (CT26 tumor cells [2]): 80% | Number of cures (CT26 tumor cells [2]): 8 | Tumor inhibition rate % (Day 42) (CT26 tumor cells [2]): 82.5% | Recurrence rate % (Week 7) (CT26 tumor cells [2]): 0% | drug distribution in the tumor [3]: increasing the distribution in the tumor compared to C11 | Tumor inhibition rate/% (week 7) (D121 lung cancer cells): 62.5% | CD8: CD45 (%) (D121 lung cancer cells; flow cytometry): 14.6% | Stability verdict (stable / unstable) [4]: stable | Stability(%) [4]: 99.8% | MTD at 17 days [5]: 100 mg/kg | Number of deaths (BALB/C mouse): 1 | Death dose (BALB/C mouse): 110 mg/kg | tumor tissue distribution and penetration [7]: more tumor tissue distribution and penetration after intravenous injection than Succinyl-AANL-DOX

CNC(=O)c1cc(Oc2ccc(NC(=O)Nc3ccc(Cl)c(C(F)(F)F)c3)cc2)ccn1 [Sorafenib, reference compound]
CD8: CD45 (%) (CT26 tumor cells [8]): 7.2% | Number of animals cured (CT26 tumor cells [8]): 0 | Tumor inhibition rate/% (at week 7) (CT26 tumor cells [8]): 15.7% | effect on T cells (D121 lung cancer cells; flow cytometry, discussion of Table 6): inhibited T cells | Tumor inhibition rate/% (week 7) (D121 lung cancer cells): 24.5% | CD8: CD45 (%) (D121 lung cancer cells; flow cytometry): 6.4% | MTD at 17 days [5]: 11 mg/kg | Number of deaths (BALB/C mouse): 0 | Death dose (BALB/C mouse): 12 mg/kg | toxicity to / activation by tumor-associated macrophages (M2 type) [6]: also toxic

— patent publication US11078232B2, “Preparation and use of molecular site targeted and activated kinase inhibitor” (Yafei Shanghai Biology Medicine Science & Technology Co. …, priority 2017, dated 2021)
